Test results from PubChem BioAssay (NCI).
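Five compound concentrations were applied to cells in 96-well plates for 48 hours; endpoints were derived by simple linear interpolation of the resulting dose-response curve. TGI denotes the concentration required for complete inhibition of growth.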 Where a SMILES comes first, the peptide text is derived from it. The star is where a group is joined. Boc = CC(C)(C)OC(=O)*

Columns and labels:
Test in all cases: growth of human tumour cells (NCI), 48 h
[1] = test system: MOLT-4 leukemia
[2] = test system: TK-10 renal
[3] = test system: OVCAR-5 ovarian
[4] = test system: CAKI-1 renal
[5] = test system: UACC-257 melanoma
[6] = test system: M14 melanoma
[7] = test system: OVCAR-8 ovarian
[8] = test system: HCT-116 colon
[9] = test system: K-562 leukemia
[10] = test system: CCRF-CEM leukemia
[11] = test system: EKVX NSCLC
[12] = test system: MDA-N
[13] = test system: HOP-62 NSCLC
[14] = test system: SNB-75 CNS
[15] = test system: SNB-19 CNS
[16] = test system: MDA-MB-231 breast
[17] = test system: HS 578T breast
[18] = test system: T-47D breast
[19] = test system: MALME-3M melanoma

Row | Structure (SMILES) | TGI [1] [µM] | TGI [2] [µM] | TGI [3] [µM] | TGI [4] [µM] | TGI [5] [µM] | TGI [6] [µM] | TGI [7] [µM] | TGI [8] [µM] | TGI [9] [µM] | TGI [10] [µM] | TGI [11] [µM] | TGI [12] [µM] | TGI [13] [µM] | TGI [14] [µM] | TGI [15] [µM] | TGI [16] [µM] | TGI [17] [µM] | TGI [18] [µM] | TGI [19] [µM]
1 | COc1c(C)c(C/C=C(\C)CCCCO[Si](C(C)C)(C(C)C)C(C)C)c(OC)c2ccccc12 | > 100 | > 100 | > 100 | > 100 | > 100 | > 100 | > 100 | > 100 | > 100 | 89.3 | > 100 | > 100 | > 100 | > 100 | > 100 | > 100 | > 100 |  | 
2 | O=C1/C(=C\c2ccc(Cl)cc2Cl)Sc2scc(-c3cccc([N+](=O)[O-])c3)[n+]21 | 3.94 | 13.3 | 34.4 | 8.21 | 18.3 | 19.9 | 29.1 | 17.8 | > 100 |  | 14.3 | 16.7 | 37.1 | > 69.8 | 32.5 | 25.1 | > 100 | 57.8 | 22.9
3 | COc1ccccc1C1SCC(=O)N1c1ccc(-n2c(-c3ccccc3)nc3ccccc3c2=O)cc1 (configuration not stated) | > 100 | > 100 | > 100 | > 100 | > 100 |  | > 100 | > 100 | > 100 | > 100 | > 100 | > 100 | > 100 | 43.1 | > 100 | > 100 | > 100 | > 100 | > 100
4 | OCC(CN1CCCCC1)(CN1CCCCC1)CN1CCCCC1 | > 100 | > 100 | > 100 | > 100 | > 100 | > 100 | > 100 | > 100 | > 100 | > 100 | > 100 | > 100 | > 100 |  | > 100 | > 100 | > 100 | > 100 | > 100
5 | C/C=C/c1c(O)c(=O)c2c(OC)cc(OC)c3c4c(OC)cc(OC)c5c(=O)c(O)c(/C=C/C)c(c1c23)c54 | > 100 |  | 68.9 | 21.1 | 45.5 | > 100 | 31.4 | 28 | > 100 | > 100 | 40.5 | 29.4 | 54.5 | 28.7 | 17.2 | 34.9 |  |  | 19.6
6 | CN(NC(=O)c1ccco1)C1=NCCN1 | > 100 | > 100 | > 100 |  | > 100 | > 100 | > 100 | > 100 | > 100 | > 100 | > 100 | > 100 | > 100 | > 100 | > 100 | > 100 | > 100 | > 100 | > 100
7 | CC(=O)C1C(=O)C(=O)N(c2cccc(C)c2C)C1=O (configuration not stated) | > 100 | > 100 | > 100 | > 100 | > 100 | > 100 | > 100 | > 100 |  |  | > 100 | > 100 | > 100 | > 100 | > 100 | > 100 |  | > 100 | 
8 | Cc1ccc(S(=O)(=O)N2CC3OC(C)(C)OC3C2CO)cc1 (configuration not stated) | > 100 | > 100 | > 100 | > 100 | > 100 | > 100 | > 100 | > 100 | > 100 | > 100 |  | > 100 | > 100 | > 100 |  | > 100 | > 100 | > 100 | > 100
9 | COc1ccc2cc(C(C)C(O)c3cc(F)c(F)c(F)c3F)ccc2c1 (configuration not stated) |  | > 100 | > 100 |  | > 100 | > 100 | > 100 | > 100 | > 100 | > 100 | > 100 | > 100 | > 100 | 43.6 | > 100 | > 100 |  | > 100 | > 100
10 | CCOC(=O)c1c(N)nn2c1cc1cccccc12 | > 100 | 74.6 | > 100 | > 100 | 71.5 | > 100 | 73.1 | > 100 |  | > 100 | > 100 | > 100 | > 100 |  | > 100 | > 100 | 82.8 | 64.4 | 67.3
11 | C[C@H]1O[C@@H](c2c(O)ccc3ccccc23)C[C@@H](N(C)C)C1O (some centres not stated) |  | > 100 | > 100 |  | > 100 | > 100 | > 100 | > 100 | > 100 | > 100 | > 100 | > 100 | > 100 | > 100 | > 100 | > 100 | > 100 |  | > 100
12 | C=CCCCC1CCCNC1=O (configuration not stated) | > 100 | > 100 | > 100 | > 100 | > 100 | > 100 | > 100 | > 100 | > 100 |  | > 100 | > 100 | > 100 | > 100 | > 100 | > 100 | > 100 | > 100 | 
13 | O=c1cc(-c2ccccc2)[nH]c2cc(F)c(F)cc12 | > 100 | > 100 | > 100 | > 100 | > 100 | > 100 | > 100 | > 100 | > 100 | > 100 | > 100 | 1.17 | > 100 | 90 | > 50.6 | > 77.2 | > 28.9 |  | > 100
14 | C=CC(Cl)(CBr)CCC(Br)=C(C)C (configuration not stated) | > 100 | 58.8 | 61.2 | 21.2 | 59.5 | > 100 | 64.6 | 63 | > 100 | > 100 | > 100 | 40.8 | > 100 | 91.4 | > 100 | 37.5 | 76.2 |  | 34.5
15 | COc1cc(/C=C2\C[C@H]3[C@@H]4CC=C5C[C@@H](O)CC[C@]5(C)[C@H]4CC[C@]3(C)[C@H]2O)cc(OC)c1OC | 91.4 | > 100 | 61.9 | > 100 | 83.1 | 61.7 | > 100 | 24.4 | > 100 |  | > 100 | > 100 | 41.3 | 75.4 | > 100 | 41.7 | > 100 | 72.6 | > 100
16 | CC(NC(=O)C(NC(=O)OC(C)(C)C)C(C)C)C(=O)N1CCCC1C(=O)NCC(=O)NC(C(=O)NCC(=O)O)C(C)C (configuration not stated) (Boc-VAPGVG-OH; configuration not given here) | > 100 | > 100 | > 100 | > 100 | > 100 | > 100 | > 100 | > 100 | > 100 | > 100 | > 100 | > 100 | > 100 | > 100 | > 100 | > 100 |  | > 100 | > 100
17 | CC(=O)OC1CCN(C(=O)c2ccccc2)CC1CC1(c2cc3ccccc3[nH]2)OCCO1 (configuration not stated) | 75 | > 100 | > 100 | > 100 | > 100 | > 100 | > 100 | > 100 | > 100 | > 100 | > 100 | > 100 | > 100 | > 100 | > 100 | > 100 |  | > 100 | > 100
18 | CCOC(=O)c1ccc(Nc2nc3cc(C(F)(F)F)ccc3nc2-c2ccccc2)cc1 | > 10 | > 10 | > 100 | > 100 | > 100 |  | > 100 | > 100 | > 100 | > 100 | > 100 | > 100 | 61.7 | 39.4 | > 100 | > 100 | 84.2 | 91.6 | > 100
19 | Cc1ccc2c(c1)C(=O)/C(=C\c1ccccc1)CCS2(=O)=O | 87.5 | 30.7 | > 55.7 | 49.9 | 31.6 | > 53.8 | 62.6 | 18.7 | 5.52 |  | > 100 | > 52.4 | > 86 | > 58 | 28.2 | 35.5 | > 85.1 | 49.6 | 36.5
20 | COC(=O)[C@@H]1CN(C(=O)c2ccccc2)C(=O)N1 | > 100 | > 100 | > 100 |  | > 100 | > 100 | > 100 | > 100 | > 100 | > 100 | > 100 | > 100 | > 100 | > 100 | > 100 | > 100 | > 100 | > 100 | > 100
21 | CC1Cc2c(Br)nc(N)nc2NC1=O (configuration not stated) | > 100 | > 100 | > 100 | > 100 | > 100 | > 100 | > 100 | > 100 | > 100 |  | > 100 | > 100 | > 100 | > 100 | > 100 | > 100 | > 100 | > 100 | > 100
22 | Cc1cc(C)nc(NS(=O)(=O)c2ccc(Nc3nncc(=O)n3N)cc2)n1 | 48.6 |  | 37.2 | 29.5 | 43.9 | > 100 | 29.2 | 87.8 | 43.9 | 11.6 | 62.7 | 30 | 34.7 |  | 83 |  | > 100 | 38.3 | 41.6
23 | CC(C)CNC(=O)CCc1cccc2c1oc1c(CCN)cccc12 | 30.7 |  | 28.7 | 31.5 | 24.8 | 30.5 | 34.1 | 21.5 | 14.2 | 17.6 | 27.6 | 40.5 | 33.7 | 20.1 | 15.9 | 31.6 |  | 37.1 | 32
24 | C#CCOC(=O)c1ccccc1O | > 100 | > 100 | > 100 | > 100 | > 100 | > 100 | > 100 | > 100 | > 100 | > 100 | > 100 | > 100 | > 100 | > 100 | > 100 | > 100 | > 100 | > 100 | 
25 | O=C(/C=C(\O)c1ccc(Cl)cc1)C(=O)N=Nc1c(O)[nH]c2ccc(Br)cc12 | 4.85 | > 100 | > 100 | > 100 | > 100 | > 100 | > 100 | > 100 | 45.8 |  | > 100 | > 100 | > 100 | > 100 | > 100 | > 100 | > 100 | > 100 | > 100
26 | CC1CN=C(Nc2ccc(F)cc2F)S1 (configuration not stated) | > 100 | > 100 | > 100 | > 100 | > 100 |  | > 100 | > 100 | > 100 | > 100 | > 100 | > 100 | > 100 | > 100 | > 100 | > 100 | > 100 | > 100 | > 100
